# Experimental data published in ChEMBL document CHEMBL4304789, “Design, Synthesis, and Biological Evaluation of 2,4-Imidazolinedione Derivatives as HDAC6 Isoform-Selective Inhibitors” (ACS Med Chem Lett, 2019).
# Calls of active or inactive are those of the source. The calls are words filed in the database; no cut-off is given here.
# Biological target: T1, Protein deacetylase HDAC6 (Homo sapiens, UniProt Q9UBN7)
# T1 sequence (Q9UBN7 whole entry): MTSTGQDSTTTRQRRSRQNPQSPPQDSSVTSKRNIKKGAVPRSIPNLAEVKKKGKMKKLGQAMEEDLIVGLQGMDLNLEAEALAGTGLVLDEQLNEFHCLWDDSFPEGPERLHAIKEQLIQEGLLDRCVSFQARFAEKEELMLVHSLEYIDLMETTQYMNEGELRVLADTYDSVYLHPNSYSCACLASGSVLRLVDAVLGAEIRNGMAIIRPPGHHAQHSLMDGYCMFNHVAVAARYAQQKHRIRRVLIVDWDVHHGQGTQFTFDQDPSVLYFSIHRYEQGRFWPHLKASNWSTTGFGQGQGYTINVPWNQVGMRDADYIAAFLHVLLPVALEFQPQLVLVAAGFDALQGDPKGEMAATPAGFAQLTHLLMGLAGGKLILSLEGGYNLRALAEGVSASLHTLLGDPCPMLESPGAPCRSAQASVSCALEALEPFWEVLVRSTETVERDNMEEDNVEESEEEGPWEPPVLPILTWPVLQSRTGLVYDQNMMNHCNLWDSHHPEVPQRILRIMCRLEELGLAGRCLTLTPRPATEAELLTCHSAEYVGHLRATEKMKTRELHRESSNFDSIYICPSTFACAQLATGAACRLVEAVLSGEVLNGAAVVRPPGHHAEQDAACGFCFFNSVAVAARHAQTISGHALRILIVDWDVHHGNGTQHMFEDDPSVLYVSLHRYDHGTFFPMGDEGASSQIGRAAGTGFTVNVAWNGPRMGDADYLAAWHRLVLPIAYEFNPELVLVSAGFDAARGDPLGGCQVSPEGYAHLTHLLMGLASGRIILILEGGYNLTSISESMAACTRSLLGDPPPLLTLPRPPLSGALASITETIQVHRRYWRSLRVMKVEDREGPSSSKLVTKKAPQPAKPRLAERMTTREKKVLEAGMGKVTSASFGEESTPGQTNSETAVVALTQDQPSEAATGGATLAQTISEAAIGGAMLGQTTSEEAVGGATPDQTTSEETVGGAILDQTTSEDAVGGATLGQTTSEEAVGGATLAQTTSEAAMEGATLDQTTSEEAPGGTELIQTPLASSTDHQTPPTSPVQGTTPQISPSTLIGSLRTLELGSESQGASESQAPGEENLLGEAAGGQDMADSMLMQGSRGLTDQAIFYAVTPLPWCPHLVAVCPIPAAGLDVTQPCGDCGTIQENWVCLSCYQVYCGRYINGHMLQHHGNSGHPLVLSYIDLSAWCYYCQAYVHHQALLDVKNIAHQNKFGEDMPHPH
# Assay: Inhibition of HDAC6 (unknown origin) using Ac-LeuGlyLys(Ac)-AMC as substrate preincubated for 5 mins followed by substrate addition and measured after 60 mins by fluorescence based assay
# Conditions: not given
row,SMILES,IC50 [nM]
1,Cc1ccc(CN2C(=O)N(c3ccc(Cl)cc3)C(=O)C2CCC(=O)Nc2cccc(C(=O)NO)c2)cc1 (centres undefined),> 40
2,O=C(CCC1C(=O)N(Cc2ccccc2)C(=O)N1Cc1ccc(Br)cc1)Nc1ccc(C(=O)NO)cc1 (centres undefined),9.8
3,Cc1ccc(CN2C(=O)N(c3ccc(Cl)cc3)C(=O)C2CCC(=O)NCc2ccc(C(=O)NO)cc2)cc1 (centres undefined),18.9
4,CCCN1C(=O)N(c2ccc(Cl)cc2)C(=O)C1CCC(=O)Nc1ccc(C(=O)NO)cc1 (centres undefined),12.6
5,Cc1ccc(CN2C(=O)N(C3CCCCC3)C(=O)C2CCC(=O)Nc2ccc(C(=O)NO)cc2)cc1 (centres undefined),10.3
6,CN1C(=O)N(c2ccc(Cl)cc2)C(=O)C1CCC(=O)NCc1ccc(C(=O)NO)cc1 (centres undefined),11.8
7,CCCN1C(=O)N(C2CCCCC2)C(=O)C1CCC(=O)Nc1ccc(C(=O)NO)cc1 (centres undefined),> 40
8,O=C(CCC1C(=O)N(c2ccc(Cl)cc2)C(=O)N1Cc1ccccc1)Nc1cccc(C(=O)NO)c1 (centres undefined),> 40
9,O=C(CCC1C(=O)N(c2ccccc2)C(=O)N1Cc1ccc(Br)cc1)NCc1ccc(C(=O)NO)cc1 (centres undefined),13.6
10,O=C(CCC1C(=O)N(c2ccc(Cl)cc2)C(=O)N1Cc1ccc(Br)cc1)NCc1ccc(C(=O)NO)cc1 (centres undefined),16.5
11,O=C(CCC1C(=O)N(c2ccc(Cl)cc2)C(=O)N1Cc1ccccc1)NCc1ccc(C(=O)NO)cc1 (centres undefined),12.7
12,Cc1ccc(CN2C(=O)N(C3CCCCC3)C(=O)C2CCC(=O)NCc2ccc(C(=O)NO)cc2)cc1 (centres undefined),17
13,CN1C(=O)N(c2ccc(Cl)cc2)C(=O)C1CCC(=O)Nc1ccc(C(=O)NO)cc1 (centres undefined),7

# Biological target: Histone deacetylase (Homo sapiens) (UniProt Q13547+O15379+Q9UBN7+Q92769+Q9UQL6+Q8WUI4+Q9BY41+Q96DB2+P56524+Q9UKV0+Q969S8)
# Conditions: at 0.08 to 1.6 µM
# Description: Inhibition of HDAC in human HL60 cells assessed as increase in acetylation of H3 at 0.08 to 1.6 uM incubated for 24 hrs by western blot analysis
row,SMILES,inhibition
1,O=C(CCCCCCNC(=O)c1cnc(N(c2ccccc2)c2ccccc2)nc1)NO,Active
